# Patent US9084424B2, “N-benzyl heterocyclic carboxamides” (BAYER INTELLECTUAL PROPERTY GMBH, priority 2010, dated 2015)
# Tests used:
# [1] = log P by HPLC on reversed-phase column (EEC Directive 79/831 Annex V.A8); assay type: physicochemical; settings: 0.1% aqueous formic acid and acetonitrile, linear gradient 10% to 90% acetonitrile
# Description: In table 1, the log P values were determined in accordance with EEC Directive 79/831 Annex V.A8 by HPLC (High Performance Liquid Chromatography) on a reversed-phase column (C 18), using the method described below: Temperature: 40° C.; Mobile phases: 0.1% aqueous formic acid and acetonitrile; linear gradient from 10% acetonitrile to 90% acetonitrile. Calibration was carried out using unbranched alkan-2-ones (comprising 3 to 16 carbon atoms) with known log P values (determination of the log P values by the retention times using linear interpolation between two successive alkanones). lambda-max-values were determined using UV-spectra from 200 nm to 400 nm and the peak values of the chromatographic signals.
# Pyrenophora teres = assay: In vivo preventive test on Pyrenophora teres (barley); settings: preventive spray, 500 ppm of active ingredient, evaluated 7-9 days after inoculation
# Description: In Vivo Preventive Test on Pyrenophora teres (Barley)
# Solvent: 49 parts by weight of N,N-dimethylacetamid
# Emulsifier: 1 part by weight of alkylaryl polyglycol ether
# To produce a suitable preparation of active compound, 1 part by weight of active compound is mixed with the stated amounts of solvent and emulsifier, and the concentrate is diluted with water to the desired concentration.
# To test for preventive activity, young plants are sprayed with the preparation of active compound at the stated rate of application. One day after this treatment, the plants are inoculated with an aqueous spore suspension of Pyrenophora teres. The plants remain for 48 hours in an incubation cabinet at 22° C. and a relative atmospheric humidity of 100%. Then the plants are placed in a greenhouse at a temperature of approximately 20° C. and a relative atmospheric humidity of approximately 80%.
# The test is evaluated 7-9 days after the inoculation. 0% means an efficacy which corresponds to that of the untreated control while an efficacy of 100% means that no disease is observed.
# [2] = HPLC, reversed-phase C 18, 40° C.
# [3] = HPLC on reversed-phase column (C 18), 40° C.
SMILES,"logP [1, 2]","logP [1, 3]",Efficacy (Pyrenophora teres) [%]
Cn1nc(C(F)F)c(C(=O)NC(C#N)c2cc(F)ccc2F)c1F (racemic) [Example 8],2.01,,
Cn1nc(C(F)F)c(C(=O)NC2(c3ccccn3)CCCC2)c1F [Example 172],,1.13,
Cn1nc(C(F)F)c(C(=O)N(Cc2ncc(Cl)cc2Cl)C2CCCC2)c1F [Example 183],,3.85,
Cn1nc(C(F)F)c(C(=O)NCc2ccc(C(F)(F)F)cc2)c1Cl [Example 124],,2.90,
CON(Cc1ncc(Cl)cc1Cl)C(=O)c1c(C(F)F)nn(C)c1Cl [Example 182],,2.88,95
Cn1nc(C(F)F)c(C(=O)N(Cc2ncc(C(F)(F)F)cc2Cl)C2CCCC2)c1F [Example 190],,3.96,
CCc1ccccc1CN(CC#N)C(=O)c1c(C(F)F)nn(C)c1F [Example 11],2.68,,
Cn1nc(C(F)F)c(C(=O)NCc2ccccc2Cl)c1F [Example 25],2.50,,
CN(Cc1cc(Cl)ccn1)C(=O)c1c(C(F)F)nn(C)c1F [Example 174],,1.84,75
CN(Cc1cc(Cl)ccc1Cl)C(=O)c1c(C(F)F)nn(C)c1Cl [Example 57],3.23,,
CC(NC(=O)c1c(C(F)F)nn(C)c1F)c1ccc(C2CCCCC2)cc1 (stereo not drawn) [Example 129],,4.34,100
Cn1nc(C(F)F)c(C(=O)NC2(c3ccc(C(F)(F)F)cc3)CCCC2)c1Cl [Example 122],,3.87,
CN(Cc1cc(Cl)ccn1)C(=O)c1c(C(F)F)nn(C)c1Cl [Example 173],,2.01,
Cn1nc(C(F)F)c(C(=O)NCc2ccccc2-c2ccccc2)c1Cl [Example 164],,3.39,
Cn1nc(C(F)F)c(C(=O)N(Cc2cc(Cl)ccc2C(F)(F)F)C2CSC2)c1Cl [Example 86],4.08,,
Cn1nc(C(F)F)c(C(=O)NC(C#N)c2ccccc2)c1Cl (racemic) [Example 4],2.20,,
Cn1nc(C(F)F)c(C(=O)NC(C#N)c2cc(F)ccc2F)c1Cl (racemic) [Example 7],2.31,,
Cc1cccc(C)c1CN(C)C(=O)c1c(C(F)F)nn(C)c1F [Example 6],2.84,,78
CC(C)c1ccccc1CN(CC#N)C(=O)c1c(C(F)F)nn(C)c1F [Example 67],2.94,,90
Cn1nc(C(F)F)c(C(=O)NC(C)(C)c2c(F)cccc2F)c1Cl [Example 10],3.89,,
CC(C)N(Cc1ccccc1[Si](C)(C)C)C(=O)c1c(C(F)F)nn(C)c1F [Example 102],4.37,,
Cn1nc(C(F)F)c(C(=O)NCc2c(F)cccc2C(F)(F)F)c1F [Example 95],2.69,,
Cn1nc(C(F)F)c(C(=O)NCc2ccccc2Oc2ccccc2)c1Cl [Example 143],,3.46,
CC(C)c1ccc(Cl)cc1CN(CC(F)F)C(=O)c1c(C(F)F)nn(C)c1F [Example 80],3.81,,100
CN(Cc1ccccc1Br)C(=O)c1c(C(F)F)nn(C)c1Cl [Example 104],2.90,,78

SMILES,"logP [1, 2]","logP [1, 3]",Efficacy (Pyrenophora teres) [%]
Cn1nc(C(F)F)c(C(=O)NCc2ncc(C(F)(F)F)cc2Cl)c1Cl [Example 178],,3.08,
C=CCN(Cc1c(Cl)cccc1C(F)(F)F)C(=O)c1c(C(F)F)nn(C)c1F [Example 94],3.37,,80
CC(c1c(Cl)cccc1Cl)N(C)C(=O)c1c(C(F)F)nn(C)c1Cl (stereo not drawn) [Example 63],3.25,,
CC(c1c(Cl)cccc1Cl)N(C)C(=O)c1c(C(F)F)nn(C)c1F (stereo not drawn) [Example 64],3.13,,95
CN(Cc1cccc(Oc2ccccc2)c1)C(=O)c1c(C(F)F)nn(C)c1Cl [Example 149],,3.46,70
Cn1nc(C(F)F)c(C(=O)NC2(c3cc(Cl)ccc3Cl)CC2)c1Cl [Example 48],4.19,,
Cn1nc(C(F)F)c(C(=O)NCc2ccc(Cl)cc2Cl)c1Cl [Example 34],4.19,,
Cc1cccc(C)c1CN(C)C(=O)c1c(C(F)F)nn(C)c1Cl [Example 5],3.02,,89
COc1ccc(C2(NC(=O)c3c(C(F)F)nn(C)c3Cl)CCCC2)cc1 [Example 132],,3.19,
Cn1nc(C(F)F)c(C(=O)NCc2c(F)cccc2C(F)(F)F)c1Cl [Example 96],2.86,,
CN(Cc1c(Cl)cccc1Cl)C(=O)c1c(C(F)F)nn(C)c1Cl [Example 61],3.02,,100
Cn1nc(C(F)F)c(C(=O)NCc2ccccc2C2CC2)c1Cl [Example 66],2.98,,
Cn1nc(C(F)F)c(C(=O)NCc2ccc(-c3ccccc3)cc2)c1Cl [Example 168],,3.35,
Cn1nc(C(F)F)c(C(=O)NCc2ccc3c(c2)CCCC3)c1Cl [Example 111],,3.44,
Cn1nc(C(F)F)c(C(=O)NCc2cccc(Oc3ccccc3)c2)c1Cl [Example 146],,3.46,
CN(Cc1ccc(Cl)cc1Cl)C(=O)c1c(C(F)F)nn(C)c1Cl [Example 42],3.37,,
CC(C)c1ccccc1CN(C(=O)c1c(C(F)F)nn(C)c1F)C(C)C [Example 69],3.70,,
CN(Cc1ccc(Cl)cc1Cl)C(=O)c1c(C(F)F)nn(C)c1F [Example 43],3.19,,100
CCc1ccccc1CN(C(=O)c1c(C(F)F)nn(C)c1F)C(C)C [Example 14],3.39,,
Cn1nc(C(F)F)c(C(=O)NCc2ccccc2-c2ccccc2)c1F [Example 163],,3.21,
CN(Cc1ccc(Oc2ccc(Cl)cc2)cc1)C(=O)c1c(C(F)F)nn(C)c1Cl [Example 157],,3.96,90
CN(Cc1c(Cl)cccc1Cl)C(=O)c1c(C(F)F)nn(C)c1F [Example 62],2.82,,100
CC(C)N(Cc1c(Cl)cccc1C(F)(F)F)C(=O)c1c(C(F)F)nn(C)c1F [Example 92],3.61,,70
Cn1nc(C(F)F)c(C(=O)NCc2c(Cl)cccc2Cl)c1F [Example 60],4.39,,
Cn1nc(C(F)F)c(C(=O)NCc2ccc(Oc3ccccc3)cc2)c1Cl [Example 151],,3.37,

SMILES,"logP [1, 2]","logP [1, 3]",Efficacy (Pyrenophora teres) [%]
CON(Cc1ccccc1C(C)C)C(=O)c1c(C(F)F)nn(C)c1Cl [Example 77],3.51,,
CN(Cc1cc(Cl)ccc1Cl)C(=O)c1c(C(F)F)nn(C)c1F [Example 58],3.02,,
Cn1nc(C(F)F)c(C(=O)NCc2cccc(-c3ccccc3)c2)c1Cl [Example 165],,3.33,
COc1ccc(CNC(=O)c2c(C(F)F)nn(C)c2F)cc1 [Example 134],,2.08,
COc1ccc(C2(NC(=O)c3c(C(F)F)nn(C)c3F)CCCC2)cc1 [Example 133],,3.06,95
COc1ccc(CNC(=O)c2c(C(F)F)nn(C)c2Cl)cc1OC [Example 120],,1.36,
Cn1nc(C(F)F)c(C(=O)NC(C#N)c2ccccc2)c1F (racemic) [Example 3],2.07,,
CC(c1ncc(Cl)cc1Cl)N(C)C(=O)c1c(C(F)F)nn(C)c1Cl (stereo not drawn) [Example 186],,3.11,
Cn1nc(C(F)F)c(C(=O)NC2(c3cccc(C(F)(F)F)c3)CCCC2)c1Cl [Example 109],,3.80,
Cn1nc(C(F)F)c(C(=O)N(Cc2ncc(C(F)(F)F)cc2Cl)C2CCCC2)c1Cl [Example 189],,4.21,
Cn1nc(C(F)F)c(C(=O)NCc2ccc(OCc3ccccc3)cc2)c1Cl [Example 160],,3.37,
Cn1nc(C(F)F)c(C(=O)NCc2ccccc2Cl)c1Cl [Example 21],2.69,,
Cn1nc(C(F)F)c(C(=O)NCc2ccc(C(F)(F)F)cc2)c1F [Example 123],,2.75,
COc1ccc(CNC(=O)c2c(C(F)F)nn(C)c2F)cc1OC [Example 119],,1.79,
CN(Cc1ccc(Oc2ccccc2)cc1)C(=O)c1c(C(F)F)nn(C)c1Cl [Example 155],,3.48,
Cn1nc(C(F)F)c(C(=O)NC(C)(C)c2cc(Cl)cc(Cl)c2)c1F [Example 114],,3.59,
Cn1nc(C(F)F)c(C(=O)NCc2c(Cl)cccc2Cl)c1Cl [Example 59],3.89,,
Cn1nc(C(F)F)c(C(=O)NCc2ccc(Cl)cc2)c1Cl [Example 128],,2.70,
Cn1nc(C(F)F)c(C(=O)NCc2cc(Cl)ccc2Cl)c1Cl [Example 47],4.39,,
CCOc1ccc(C2(NC(=O)c3c(C(F)F)nn(C)c3Cl)CCCC2)cc1 [Example 130],,3.59,
Cn1nc(C(F)F)c(C(=O)N(CC#N)Cc2ccccc2[Si](C)(C)C)c1F [Example 97],3.52,,
Cn1nc(C(F)F)c(C(=O)NC2(c3ccccn3)CCCC2)c1Cl [Example 171],,1.30,
Cn1nc(C(F)F)c(C(=O)NC(C)(C)c2c(F)cccc2F)c1F [Example 9],4.19,,
